Calls of active or inactive are those of the source. The rule behind the calls is not given here.
Tests used:
[1] = target: T1, 17-beta-hydroxysteroid dehydrogenase type 1 (Homo sapiens) (UniProt P14061); assay: Inhibition of human recombinant 17-beta-HSD1 expressed in human HeLa cells using estrone as substrate preincubated for 30 mins prior substrate addition measured after 120 mins by spectrophotometry; format: cell-based
T1 sequence (whole entry): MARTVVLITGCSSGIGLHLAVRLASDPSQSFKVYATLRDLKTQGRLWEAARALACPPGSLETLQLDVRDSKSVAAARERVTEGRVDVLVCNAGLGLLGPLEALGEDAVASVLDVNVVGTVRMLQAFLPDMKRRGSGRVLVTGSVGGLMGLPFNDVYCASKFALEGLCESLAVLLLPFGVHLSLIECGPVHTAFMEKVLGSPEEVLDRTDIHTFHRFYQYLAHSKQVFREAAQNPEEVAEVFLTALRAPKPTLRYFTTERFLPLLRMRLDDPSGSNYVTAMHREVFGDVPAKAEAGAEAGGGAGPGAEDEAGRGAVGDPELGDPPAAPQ

[2] = target: T2, Estrogen receptor (Homo sapiens) (UniProt P03372); assay: Antagonist activity at human ERalpha receptor expressed in human HeLa cells assessed as inhibition of DHT-induced response after 40 hrs by luciferase/beta-galactosidase-based reporter gene assay; format: functional, cell-based
T2 sequence (whole entry): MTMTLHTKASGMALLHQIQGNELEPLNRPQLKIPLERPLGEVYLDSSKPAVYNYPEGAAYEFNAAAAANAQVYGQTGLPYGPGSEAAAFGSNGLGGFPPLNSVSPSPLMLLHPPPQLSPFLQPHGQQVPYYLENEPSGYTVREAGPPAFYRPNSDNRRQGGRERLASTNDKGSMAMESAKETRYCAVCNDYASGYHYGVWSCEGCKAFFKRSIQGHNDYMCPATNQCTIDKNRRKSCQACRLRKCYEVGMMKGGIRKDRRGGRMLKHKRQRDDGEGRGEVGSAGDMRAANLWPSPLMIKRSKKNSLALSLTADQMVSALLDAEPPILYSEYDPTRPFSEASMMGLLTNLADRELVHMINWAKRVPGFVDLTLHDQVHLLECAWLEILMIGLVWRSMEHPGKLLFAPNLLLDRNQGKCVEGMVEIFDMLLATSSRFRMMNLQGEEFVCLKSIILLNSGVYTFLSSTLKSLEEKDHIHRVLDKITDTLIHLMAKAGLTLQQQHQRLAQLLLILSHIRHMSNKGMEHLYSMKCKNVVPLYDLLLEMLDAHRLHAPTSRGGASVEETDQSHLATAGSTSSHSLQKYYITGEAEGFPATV

Rattus norvegicus [3] = assay: Tmax in Sprague-Dawley rat assessed as 5-(3,5-Dichloro-4-hydroxybenzylidene)-3-(4-methoxyphenyl)-2-thioxo-1,3-oxazolidin-4-one concentration at 10 mg/kg, po; format: ADME, organism-based; parameters: dose 10 mg/kg, route oral; details: in vivo
Rattus norvegicus [4] = assay: Cmax in Sprague-Dawley rat assessed as 5-(3,5-Dichloro-4-hydroxybenzylidene)-3-(4-methoxyphenyl)-2-thioxo-1,3-oxazolidin-4-one concentration at 10 mg/kg, po; format: ADME, organism-based; parameters: dose 10 mg/kg, route oral; details: in vivo
Rattus norvegicus [5] = assay: AUC (0 to 24 hrs) in Sprague-Dawley rat assessed as 5-(3,5-Dichloro-4-hydroxybenzylidene)-3-(4-methoxyphenyl)-2-thioxo-1,3-oxazolidin-4-one concentration at 10 mg/kg, po; format: ADME, organism-based, Plasma; parameters: time < 24 hr, dose 10 mg/kg, route oral; details: in vivo
Rattus norvegicus [6] = assay: Oral bioavailability in Sprague-Dawley rat assessed as 5-(3,5-Dichloro-4-hydroxybenzylidene)-3-(4-methoxyphenyl)-2-thioxo-1,3-oxazolidin-4-one concentration at 10 mg/kg; format: ADME, organism-based; details: in vivo
Rattus norvegicus [7] = assay: Inhibition of LH-RH agonist leuprorelin-induced testosterone steroidogenesis in Sprague-Dawley rat drug administered po 1 hr prior leuprorelin-induction measured up to 240 mins by GC/MS analysis; format: functional, organism-based
Rattus norvegicus [8] = assay: Inhibition of LH-RH agonist leuprorelin-induced testosterone steroidogenesis in Sprague-Dawley rat at 100 mg/kg, po administered 1 hr prior leuprorelin-induction measured up to 240 mins by GC/MS analysis relative to CB7630; format: functional
Rattus norvegicus [9] = assay: Inhibition of LH-RH agonist leuprorelin-induced testosterone steroidogenesis in Sprague-Dawley rat at 100 mg/kg, po administered 1 hr prior leuprorelin-induction measured after 240 mins by GC/MS analysis relative to control; parameters: scale not given: the % may be the effect or the level left
[10] = Tmax in Sprague-Dawley rat at 10 mg/kg, po; format: ADME, organism-based; parameters: dose 10 mg/kg, route oral; details: in vivo
[11] = Cmax in Sprague-Dawley rat at 10 mg/kg, po; format: ADME, organism-based; parameters: dose 10 mg/kg, route oral; details: in vivo
[12] = AUC (0 to 24 hrs) in Sprague-Dawley rat at 10 mg/kg, po; format: ADME, organism-based; parameters: time < 24 hr, dose 10 mg/kg, route oral; details: plasma
[13] = Oral bioavailability in Sprague-Dawley rat at 10 mg/kg; format: ADME, organism-based; details: in vivo
[14] = target: T3, 17-beta-hydroxysteroid dehydrogenase type 3 (Homo sapiens, UniProt P37058)
T3 sequence (P37058 whole entry): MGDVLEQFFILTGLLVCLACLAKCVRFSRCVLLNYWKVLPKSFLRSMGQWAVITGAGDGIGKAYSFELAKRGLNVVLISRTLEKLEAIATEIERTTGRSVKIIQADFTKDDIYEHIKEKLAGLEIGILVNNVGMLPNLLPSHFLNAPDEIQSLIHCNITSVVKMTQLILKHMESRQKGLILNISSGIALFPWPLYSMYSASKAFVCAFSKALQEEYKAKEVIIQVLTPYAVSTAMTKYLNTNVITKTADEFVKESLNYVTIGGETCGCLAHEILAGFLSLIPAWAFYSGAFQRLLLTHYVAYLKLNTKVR
Description: Inhibition of human recombinant 17-beta-HSD3 expressed in human HeLa cells using androstenedione as substrate preincubated for 30 mins prior substrate addition measured after 120 mins by spectrophotometry

Row | inhibition [1] | Activity [2] | Tmax (Rattus norvegicus [3]) | Cmax (Rattus norvegicus [4]) | AUC (Rattus norvegicus [5]) | F (Rattus norvegicus [6]) | Tmax [10] | Cmax [11] | AUC(0-t) at 24 h [12] | bioavailability [13] | IC50 [14] | SMILES | inhibition (Rattus norvegicus [7]) | fold change (FC) (Rattus norvegicus [8]) | Activity (Rattus norvegicus [9])
1 | inactive | inactive | 1 h | 5250 ng/mL | 18800 ng·h/mL | 35.1% | – | – | – | – | – | COc1ccc(N2C(=O)/C(=C/c3cc(Cl)c(OP(=O)(O)O)c(Cl)c3)OC2=S)cc1 | Dose-dependent effect | 2 | 10%
2 | inactive | inactive | – | – | – | – | 1 h | 400 ng/mL | 4000 ng·h/mL | 5.5% | 12 nM | COc1ccc(N2C(=O)/C(=C/c3cc(Cl)c(O)c(Cl)c3)OC2=S)cc1 | – | – | –
